The values that follow come from patent US6821774B1, “Compositions and methods for increasing cholesterol efflux and raising HDL using ATP binding cassette transporter ABC1” (CV Therapeutics, Inc., priority 1999, dated 2004).

Series [1] has as its system normal fibroblasts. The series is described as follows: Apo A-I-mediated cholesterol efflux from normal fibroblasts in the presence of ABC1 transport inhibitors. It counts as cell-based, human. As to conditions: 6 hours; 5 μg/ml apo A-I; 0, 0.2 mM or 0.4 mM inhibitor. As for the experimental part: To test whether inhibition of ABC1 could affect the process of apolipoprotein-mediated cholesterol efflux, two compounds reported to be ABC1 inhibitors were tested in assays which monitor apolipoprotein mediated cholesterol efflux. […] The apolipoprotein-mediated cholesterol efflux assays were performed as described in Example 1 with the noted changes. Cholesterol-loaded and [^3H]cholesterol-labeled normal fibroblasts (n=3) were incubated for 6 hours with or without 5 μg/ml apo A-1 and either 0, 0.2 mM, or 0.4 mM DIDS. In addition, cholesterol-loaded and [^3H]cholesterol-labeled normal fibroblasts (n=3) were incubated for 6 hours with or without 5 μg/ml apo A-I and either 0, 0.2 mM, or 0.4 mM BSP. […] The results are shown in FIG. 5 as the mean±SD (n=3) of efflux in the presence of apo A-I after subtraction of values for apo A-I-free medium. […] The results of these tests mimic the efflux defect in fibroblasts derived from patients with TD, described in Example 1.

The target in another series is ABC1 (Mus musculus, UniProt P41233). As to conditions: Becq et al. 1997; Hamon et al. 1997; cited from earlier work.
For series [2], the system named is ABC1 mRNA. The series is described as follows: ABC1 mRNA expression by RT-PCR in normal fibroblasts. The class given is cell-based, human. The protocol:
(§1) To determine whether ABC1 plays a rate-limiting role in cellular sterol efflux, the synthesis of ABC1 was measured under various cellular conditions related to cholesterol efflux processes. Specifically, normal fibroblasts and TD fibroblasts were individually exposed to conditions of excess cAMP, cholesterol, or Apo A-I. Cell cultures of normal skin fibroblasts and TD1 and TD2 fibroblasts were prepared as described in Example 1. The level of ABC1 mRNA was measured by RT-PCR. Cell cultures: Immortalized cell cultures of normal skin fibroblasts and TD1 and TD2 fibroblasts were prepared as described in Example 1. Cells were grown to subconfluence in DMEM/10% FBS before replacement with DMEM/BSA and the indicated additive for 24 or 48 hours. RNA was prepared as described in Example 2. RT-PCR: Quantitative PCR was carried out using the GeneAmp 5700 Sequence Detection System (Perkin-Elmer Applied Biosystems, Foster City, Calif.). Briefly, 500 ng of DNase-treated mRNA was reverse transcribed using random hexamer primers at 2.5 μM. Approximately 5% of this reaction was amplified by PCR using the SYBR green core kit (PE Applied Biosystems, Foster City, Calif.; Cat. #4304886) and human ABC1 primers […] […] The mRNA in each sample was quantitated by detecting the increase in fluorescence caused by SYBR green binding to the double-stranded amplification product generated during each PCR cycle. […]

A further series deals with ABC1 protein. Briefly: Cell-surface labeling and immunoprecipitation of ABC1 protein in normal and TD1 fibroblasts. As to conditions: serum deprivation and cholesterol-loading (30 μg/ml, 48 hours), normal and TD1 cells. It counts as cell-based, human.
The subject of series [3] is RAW 264.7 cells. Briefly: Apo A-I-mediated cholesterol efflux assay in cholesterol-loaded RAW 264.7 macrophage cells. It counts as cell-based, mouse. The settings on record: apo A-I (20 μg/ml) and rolipram 50 μM.
For series [4], the system named is ABC1 mRNA. Briefly: Apo A-I-mediated cholesterol efflux from normal skin fibroblasts loaded with antisense oligonucleotide. It counts as cell-based, human. The settings on record: 30 μM oligonucleotide; apo A-I-mediated efflux after 12 hours. The protocol:
Normal skin fibroblasts were labeled with [^3H]cholesterol as described in Example 1. The cells were then loaded with oligonucleotide by scraping in the presence of either 30 μM control Morpholino oligonucleotide (5′-[…]-3′ corresponding to the antisense complement of a β-globin thalassemic mRNA; SEQ ID NO: 52) or 30 μM ABC1 antisense Morpholino oligonucleotide (5′-[…]-3′; SEQ ID NO: 53) and reseeding on new dishes. Control cells were mock-loaded after [^3H]cholesterol-labeling by scraping and reseeding in the absence of oligonucleotide. […] The results are shown in FIG. 6 as the mean±SEM of three separate experiments, normalized to the value for apo A-I-specific efflux in the absence of oligonucleotide in each experiment.

Series [5] concerns RAW 264.7 cells. Briefly: Apo A-I-mediated cholesterol efflux assay in cholesterol-loaded RAW 264.7 macrophage cells. The class given is cell-based, mouse. As for the experimental part: To determine whether ligands for nuclear receptors affect the process of apolipoprotein-mediated cholesterol efflux, various ligands were tested using the apo A-I-mediated cholesterol efflux assay described in Example 12. The nuclear receptor superfamily includes several members, such as the liver receptor LXR, the retinoid receptor RXR, and the peroxisome proliferator-activated receptor PPAR, which have been implicated in lipid metabolism (Russell. D. W., Cell, 97:539-542 (1999); Spiegelman, B. W., Cell, 93:153-155 (1998); Janowski et al., Nature, 383:728-731 (1996)). […] Using the above-described assay, 9 cis-retinoic acid (RXR ligand), oxysterol (LXR ligand), and fenfibrate (PPAR ligand) was tested to determine the effect on cholesterol efflux.
To determine whether eicosanoids affect the process of apolipoprotein-mediated cholesterol efflux, PGE1 and PG12 were tested using the apo A-I-mediated cholesterol efflux assay described in Example 12.

Series [6] deals with ABC1 mRNA. The series is described as follows: ABC1 mRNA expression by RT-PCR in Tangier disease (TD1, TD2) fibroblasts. The class given is cell-based, human. As to conditions: 10 μg/ml apo A-I. As for the experimental part: as §1
Series [7] deals with normal fibroblasts. Briefly: Cholesterol efflux from cholesterol-laden normal fibroblasts. The class given is cell-based, human. The settings on record: albumin plus apo A-I 10 μg/ml; up to 48 hours. The protocol:
(§2) Cell Cultures: Human fibroblasts were obtained from skin explants from two normal subjects (NL1) and three unrelated patients with Tangier disease ([…]). TD1 cells were obtained from a person with extremely low plasma HDL cholesterol and apo A-I levels and clinical symptoms typical of Tangier disease. […] TD3 cells were obtained from a person with Tangier disease who presented with orange tonsil remnants, asymmetrical motor neuropathy, plasma HDL cholesterol of 5 mg/dL, and LDL cholesterol of 16 mg/dL (Lawn et at., J. Clin. Invest., 104, R25-R31 (1999)). The normal cells and TD subject cells were immortalized as described in Oram et al., J. Lipid Res., 40: 1769-1781 (1999). Briefly, the cells were transfected with amphotropic retroviruses containing vectors with inserts of human papillomavirus 16 oncogenes E6 and E7 and a neomycin resistance selectable marker. Control cells were infected with vector alone (mock-infected). Pooled cell populations were selected in the presence of G418 for two passages, after which G418 was excluded from the medium. Fibroblasts were used between the fifth and sixteenth passage (primary) or sixth and fourteenth passage (immortalized). The immortalized normal and TD cells were seeded into 16-mm wells or 35-mm dishes and grown to confluence in Dulbecco's modified Eagle's medium (DMEM) plus 10% fetal bovine serum (FBS) before experimental use. […]

In another series the test system is TD fibroblasts. Briefly: Cholesterol efflux from cholesterol-laden Tangier disease fibroblasts. The class given is cell-based, human. The settings on record: albumin plus apo A-I 10 μg/ml. As for the experimental part: as §2

Chain of ABC1 (P41233 whole entry): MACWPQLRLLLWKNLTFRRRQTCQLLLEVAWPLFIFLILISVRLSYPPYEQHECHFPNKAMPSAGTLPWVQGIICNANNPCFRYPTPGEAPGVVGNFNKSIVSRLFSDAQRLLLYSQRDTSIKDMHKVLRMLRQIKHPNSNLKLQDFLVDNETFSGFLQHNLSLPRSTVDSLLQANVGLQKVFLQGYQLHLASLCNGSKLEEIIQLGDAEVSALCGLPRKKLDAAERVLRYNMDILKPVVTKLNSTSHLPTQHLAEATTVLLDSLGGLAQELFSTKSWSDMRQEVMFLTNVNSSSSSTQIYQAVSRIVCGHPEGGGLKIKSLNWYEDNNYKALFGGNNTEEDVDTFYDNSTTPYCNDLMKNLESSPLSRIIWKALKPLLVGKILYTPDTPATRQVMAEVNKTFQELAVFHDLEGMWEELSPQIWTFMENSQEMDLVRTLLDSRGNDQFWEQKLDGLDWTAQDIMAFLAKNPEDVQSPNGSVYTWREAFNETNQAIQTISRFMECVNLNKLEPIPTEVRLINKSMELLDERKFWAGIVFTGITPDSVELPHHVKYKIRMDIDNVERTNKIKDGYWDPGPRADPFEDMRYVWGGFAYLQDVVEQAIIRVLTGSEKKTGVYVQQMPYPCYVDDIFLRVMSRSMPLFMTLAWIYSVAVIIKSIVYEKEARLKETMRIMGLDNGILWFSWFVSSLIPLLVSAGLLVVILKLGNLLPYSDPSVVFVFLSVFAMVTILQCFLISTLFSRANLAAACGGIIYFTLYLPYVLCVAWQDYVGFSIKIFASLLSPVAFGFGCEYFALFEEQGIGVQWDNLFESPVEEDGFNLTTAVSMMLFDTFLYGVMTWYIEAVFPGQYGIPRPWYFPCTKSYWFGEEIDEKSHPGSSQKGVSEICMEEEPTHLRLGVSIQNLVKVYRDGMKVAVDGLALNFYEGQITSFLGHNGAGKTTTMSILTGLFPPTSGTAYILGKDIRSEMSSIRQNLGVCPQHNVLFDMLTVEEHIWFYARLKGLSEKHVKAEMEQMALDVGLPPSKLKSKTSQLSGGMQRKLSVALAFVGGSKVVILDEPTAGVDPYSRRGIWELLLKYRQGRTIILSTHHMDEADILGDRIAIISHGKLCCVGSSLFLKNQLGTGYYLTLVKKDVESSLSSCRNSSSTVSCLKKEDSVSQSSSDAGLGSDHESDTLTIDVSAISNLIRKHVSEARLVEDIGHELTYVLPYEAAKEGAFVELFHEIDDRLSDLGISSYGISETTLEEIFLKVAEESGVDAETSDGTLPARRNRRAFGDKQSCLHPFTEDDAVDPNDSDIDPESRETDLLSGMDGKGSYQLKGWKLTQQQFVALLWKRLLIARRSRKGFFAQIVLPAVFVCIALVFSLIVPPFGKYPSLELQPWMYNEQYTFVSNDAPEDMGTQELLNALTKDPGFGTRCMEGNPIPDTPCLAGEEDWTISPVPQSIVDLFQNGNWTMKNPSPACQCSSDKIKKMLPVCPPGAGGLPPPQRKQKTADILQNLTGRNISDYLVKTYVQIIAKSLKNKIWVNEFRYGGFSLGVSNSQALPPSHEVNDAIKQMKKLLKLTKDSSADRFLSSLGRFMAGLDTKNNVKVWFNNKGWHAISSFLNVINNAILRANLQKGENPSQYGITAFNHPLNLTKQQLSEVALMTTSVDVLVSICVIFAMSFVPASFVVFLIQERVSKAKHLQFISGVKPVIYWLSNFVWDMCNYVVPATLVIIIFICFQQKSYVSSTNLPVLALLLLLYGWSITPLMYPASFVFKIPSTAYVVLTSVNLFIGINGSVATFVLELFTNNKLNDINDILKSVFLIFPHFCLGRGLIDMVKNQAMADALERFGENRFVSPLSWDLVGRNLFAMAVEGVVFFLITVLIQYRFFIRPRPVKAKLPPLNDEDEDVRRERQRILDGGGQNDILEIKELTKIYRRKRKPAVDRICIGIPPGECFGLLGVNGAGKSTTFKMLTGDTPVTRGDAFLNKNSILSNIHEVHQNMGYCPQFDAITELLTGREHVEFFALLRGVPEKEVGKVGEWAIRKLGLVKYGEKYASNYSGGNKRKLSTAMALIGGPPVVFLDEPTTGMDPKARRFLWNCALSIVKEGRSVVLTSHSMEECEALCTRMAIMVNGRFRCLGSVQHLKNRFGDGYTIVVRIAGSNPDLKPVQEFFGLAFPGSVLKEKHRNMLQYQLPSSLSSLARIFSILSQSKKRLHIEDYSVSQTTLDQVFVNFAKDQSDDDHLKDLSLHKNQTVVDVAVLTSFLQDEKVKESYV
Method for ABC1 protein: Cell-surface labeling and immunoprecipitation was used to determine whether increased expression of ABC1 protein in the plasma membrane is correlated with an increase in cholesterol efflux (FIG. 10). The relative amount of ABC1 on the cell surface was determined by cross-linking surface proteins on intact cells with the membrane-impermeable agent sulfo-NHS-biotin, followed by the steps of membrane solubilization, immunoprecipitation with ABC1 antibody, SDS-PAGE, and detection with streptavidin.
Both normal and TD1 cells were cultured under control conditions and conditions known to increase apolipoprotein-mediated cholesterol efflux (Oram, et al., J. Lip. Res., 40: 1769-1781 (1999)). […] Cholesterol-loaded cells were grown to confluence in DMEM/10% FBS and then incubated in DMEM/BSA for 48 hours with 30 μg/ml cholesterol plus 18 hours with no additives (cholesterol). […]
Detection of ABC1 Protein: The eluted biotinylated proteins were subjected to SDS-PAGE (6% gel; 150V, 5 hours) and transferred to nitrocellulose membrane (200 mA, 18 hours). The nitrocellulose was probed with streptavidin-horse radish peroxidase (Amersham Pharmacia, Piscataway, N.J.; Cat. #RPN 1231) diluted 300-fold and detected by enhanced chemiluminescence labeling (ECL) according to vendor's protocol (Amersham Pharmacia, Piscataway, N.J.). […]

Turning to `O=C1OC(c2ccc(O)c(S(=O)(=O)O)c2)(c2ccc(O)c(S(=O)(=O)O)c2)c2c(Br)c(Br)c(Br)c(Br)c21` [BSP, sulphobromophthaleine], the “apo A-I-mediated efflux of tritiated cholesterol” value with normal fibroblasts [1] is given as “inhibited”. In addition, the “anion transport activities of ABC1” value at ABC1 is given as “inhibit anion transport activities of ABC1 in a dose-dependent fashion”.
`CC(C)CCC[C@@H](C)[C@H]1CC[C@H]2[C@@H]3CC=C4C[C@@H](O)CC[C@]4(C)[C@H]3CC[C@]12C` [cholesterol]: the “increase in ABC1 mRNA” value in the series on ABC1 mRNA [2] (30 μg/ml free cholesterol, 48 hours, serum-free medium, normal fibroblasts) is on record as “approximately 17 fold”. Besides, the “cell-surface expression of ABC1” value in the series with ABC1 protein is given as “markedly increased”.
`COc1ccc(C2CNC(=O)C2)cc1OC1CCCC1` (stereo not shown) [rolipram]: in the series on RAW 264.7 cells [3], the “cholesterol efflux (percentage of total radiolabeled cholesterol appearing in the medium)” value is on record as 17%.
As to “ABC1 antisense Morpholino oligonucleotide: 5′-CATGTTGTTCATAGGGTGGGTAGCTC-3′; SEQ ID NO: 53 (all phosphorodiamidate morpholino (PMO))”, in the series on ABC1 mRNA [4], the “reduction in cholesterol efflux compared with control (β-globin) antisense oligonucleotide” value stood at 50%.
In the case of “apo A-I: apolipoprotein cholesterol acceptor (Biodesign International)”, the “cholesterol efflux (percentage of total radiolabeled cholesterol appearing in the medium)” value in the series on RAW 264.7 cells [5] (apo A-I only (20 μg/ml), control cells without apo A-I 3%) amounted to 5%. In the series on RAW 264.7 cells [5] (control cells (apo A-I only)), this compound gave a cholesterol efflux counts of 1890 c.p.m. For the same compound, the “change in ABC1 mRNA expression” value in the series on ABC1 mRNA [2] (cholesterol-loaded normal fibroblasts then 10 μg/ml apo A-I) is recorded as “marked decrease”. Moreover, the “change in ABC1 expression” value with ABC1 mRNA [6] (cholesterol-loaded TD1 cells) is reported as “did not alter ABC1 expression”; with ABC1 mRNA [6] (cholesterol-loaded TD2 cells), “slightly increased ABC1 expression”. Further, the “efflux of [3H]-cholesterol” value in the series on normal fibroblasts [7] is on record as “promoted the efflux”; with TD fibroblasts, “little or no effect”.
